Data set [1] in a line: in vitro. Type of data set: cell-based. The following applies: human. An outline of the steps: (§1)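 Cytotoxicity assessed by MTT assay and proliferation by ³H-thymidine incorporation, with peptides tested at concentrations up to 100 μM.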
The nature of data set [2]: in vitro. Type of data set: cell-based. The following applies: human. An outline of the steps:
as §1
This is another data set of the same source.

In the next data set the test system is SKOV3 cells. The data set is described as follows: Disruption of human ovarian cancer cell (SKOV3) adhesion. In kind it is cell-based. The following applies: 0.01-1 mg/mL, up to 48 hours. The text has this:
Within one representative cell adhesion assay, the addition of a modulating agent to cells that express a cadherin results in disruption of cell adhesion. A “cadherin-expressing cell,” as used herein, may be any type of cell that expresses at least one cadherin on the cell surface at a detectable level, using standard techniques such as immunocytochemical protocols (Blaschuk and Farookhi, Dev. Biol. 136:564-567, 1989). Cadherin-expressing cells include endothelial (e.g., bovine pulmonary artery endothelial cells), epithelial and/or cancer cells (e.g., the human ovarian cancer cell line SKOV3 (ATCC #HTB-77)). For example, such cells may be plated under standard conditions that permit cell adhesion in the presence and absence of modulating agent (e.g., 500 μg/mL). Disruption of cell adhesion may be determined visually within 24 hours, by observing retraction of the cells from one another.
The human ovarian cancer cell line SKOV3 (ATCC #HTB-77) expresses N-cadherin. SKOV3 cells were cultured in a modified MEM-based media containing 10% FCS. Cells were grown in T-250 culture flasks and maintained by periodic subculturing. Cyclic peptides were tested on cells grown in individual wells of 96-well culture dishes (surface area of each well was 0.32 cm^2). Cells were harvested from flasks and seeded at a density of 50,000 cells per well in 0.1 mL media containing the cyclic peptides at concentrations of 1, 0.1, or 0.01 mg/mL, or in the absence of cyclic peptide. Media control wells were also established. Cultures were evaluated periodically by microscopic examination under both bright field and phase contrast conditions. Cultures were maintained for 48 hours.

A short description of data set [3]: in vitro. In kind it is cell-based. The following applies: human. An outline of the steps: as §1
This is another data set of the same source.

The test system of a further data set is HMVEC. In kind it is cell-based, human. The following applies: 3 h. On the procedure:
(§2) N-Ac-CHAVC-NH2 (SEQ ID NO:10) and the control peptide N-Ac-CHGVC-NH2 (SEQ ID NO:20) were evaluated for possible cytotoxic effects on human microvascular endothelial (HMVEC; Clonetics), human umbilical vein endothelial (HUVEC; ATCC #CRL-1730), IAFp2 (human fibroblast cell line; Institute Armand-Frapier, Montreal, Quebec), WI-38 (human fibroblast cell line; ATCC #CCL-75), MDA-MB231 (human breast cancer cell line; ATCC #HTB-26), and PC-3 (human prostate cancer cell line; ATCC #CRL-1435) cells utilizing the MTT assay (Plumb et al., Cancer Res. 49:4435-4440, 1989). Neither of the peptides was cytotoxic at concentrations up to and including 100 μM. Similarly, neither of the peptides was capable of inhibiting the proliferation of the above cell lines at concentrations up to 100 μM, as judged by ^3H-thymidine incorporation assays.

In another data set the test system is WI-38. Type of data set: cell-based, human. The following applies: 3 h. The method, then: as §2
The test system of data set [4] is PC-3. In kind it is cell-based, human. The following applies: 3 h. The method, then:
as §2

For the next data set, the system named is IAFp2. Type of data set: cell-based, human. The following applies: 3 h. On the procedure:
as §2

Data set [5] in a line: in vitro. Type of data set: cell-based. The following applies: human. An outline of the steps: as §1
The source holds these as a separate data set.

The subject of data set [6] is PC-3. In kind it is cell-based. The following applies: human. On the procedure: as §2
Another data set relates to MDA-MB231. In kind it is cell-based. The following applies: human. On the procedure: as §2
In the next data set the target is L1 (Homo sapiens, UniProt P32004). The data set is described as follows: L1 response: neurite outgrowth of rat cerebellar neurons on L1 expressing 3T3 cells (Example 14). The following applies: 100 μg/mL, concentrations that substantially inhibited the N-cadherin response. Type of data set: cell-based. Details: expressed in transfected cells; host or cells: 3T3 cells (stably transfected). On the procedure:
FIG. 26 is a bar graph illustrating the effects of the cyclic peptides N-Ac-CHAVDC-NH2 (SEQ ID NO:11), N-Ac-CHAVDIC-NH2 (SEQ ID NO:62) and N-Ac-[…]-NH2 (SEQ ID NO:63) on L1 function. Cerebellar neurons were cultured on monolayers of control 3T3 cells and L1 expressing 3T3 cells for 16-18 hours in control media (unshaded) or control media supplemented with peptides N-Ac-CHAVDC-NH2 (SEQ ID NO:11; diagonal rising right), N-Ac-CHAVDIC-NH2 (SEQ ID NO:62); diagonal cross hatch) or N-Ac-[…]-NH2 (SEQ ID NO:63; diagonal rising left) at a concentration of 100 μg/mL. The cultures were then fixed and neurite outgrowth determined by measuring the length of the longest neurite from a total of 150-200 neurons sampled in replicate cultures for each experimental condition. […] The results are pooled from three independent experiments, and the bars show the s.e.m.
Cell culture and neurite outgrowth assays. Co-cultures of cerebellar neurons on monolayers of control 3T3 cells and monolayers of transfected 3T3 cells that express physiological levels of chick N-cadherin or human L1 were established as previously described (Williams et al., Neuron 13:583-594, 1994). In brief, 80,000 3T3 cells (control and transfected) were plated into individual chambers of an eight-chamber tissue culture slide coated with polylysine and fibronectin and cultured in DMEM/10% FCS. After 24 hours, when confluent monolayers had formed, the medium was removed and 3000 cerebellar neurons isolated from post-natal day 2-3 rats were plated into each well in SATO media (Doherty et al., Nature 343:464-466, 1990) supplemented with 2% FCS. All of the test peptides were added immediately before the neurons as a 2×stock prepared in SATO/2% FCS. […] The mean length of the longest neurite per cell was measured for 150-200 neurons sampled in replicate cultures as previously described (Williams et al., Neuron 13:583-594, 1994). […] Dose-response curves were evaluated and the EC50 values determined. […]

Another data set deals with T1, chick N-cadherin (Gallus gallus, UniProt P10288).
T1 construct: expressed in transfected cells; host or cells: 3T3 fibroblasts
T1 sequence (P10288 165-912): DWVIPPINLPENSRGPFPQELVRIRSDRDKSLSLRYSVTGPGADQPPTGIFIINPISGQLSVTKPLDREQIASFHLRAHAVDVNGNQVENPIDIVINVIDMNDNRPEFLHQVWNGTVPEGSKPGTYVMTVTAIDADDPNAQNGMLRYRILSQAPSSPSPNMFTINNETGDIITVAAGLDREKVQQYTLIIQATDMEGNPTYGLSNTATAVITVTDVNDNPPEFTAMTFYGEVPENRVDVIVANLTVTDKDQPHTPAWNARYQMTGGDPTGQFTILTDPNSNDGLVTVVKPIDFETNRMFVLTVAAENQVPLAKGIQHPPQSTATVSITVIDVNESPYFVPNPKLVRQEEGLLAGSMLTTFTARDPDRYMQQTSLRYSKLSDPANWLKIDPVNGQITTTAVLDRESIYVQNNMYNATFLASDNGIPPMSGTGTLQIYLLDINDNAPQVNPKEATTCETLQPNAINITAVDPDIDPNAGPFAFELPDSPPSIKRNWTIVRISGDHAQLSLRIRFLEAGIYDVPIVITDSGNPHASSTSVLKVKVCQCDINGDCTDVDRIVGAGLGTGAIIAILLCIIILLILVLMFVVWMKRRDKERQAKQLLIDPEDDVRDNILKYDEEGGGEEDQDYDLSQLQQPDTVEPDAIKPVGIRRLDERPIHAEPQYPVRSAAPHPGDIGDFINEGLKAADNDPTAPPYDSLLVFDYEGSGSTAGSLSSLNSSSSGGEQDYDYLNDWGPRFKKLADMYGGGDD
Put plainly: N-cadherin dependent neurite outgrowth of rat cerebellar neurons on N-cadherin expressing 3T3 cells (Example 14). In kind it is cell-based. The following applies: for inhibition at 125 µg/mL: 125 μg/mL, 16-18 hours; for inhibitory activity on N-cadherin dependent neurite outgrowth, in words: Tables 8 and 9, 250 or 125 μg/mL. The method, then: Cell culture and neurite outgrowth assays. Co-cultures of cerebellar neurons on monolayers of control 3T3 cells and monolayers of transfected 3T3 cells that express physiological levels of chick N-cadherin or human L1 were established as previously described (Williams et al., Neuron 13:583-594, 1994). In brief, 80,000 3T3 cells (control and transfected) were plated into individual chambers of an eight-chamber tissue culture slide coated with polylysine and fibronectin and cultured in DMEM/10% FCS. After 24 hours, when confluent monolayers had formed, the medium was removed and 3000 cerebellar neurons isolated from post-natal day 2-3 rats were plated into each well in SATO media (Doherty et al., Nature 343:464-466, 1990) supplemented with 2% FCS. All of the test peptides were added immediately before the neurons as a 2×stock prepared in SATO/2% FCS. The co-cultures were maintained for 16-18 hours, at which time they were fixed and immunostained for GAP-43 which is present only in the neurons and delineates the neuritic processes. The mean length of the longest neurite per cell was measured for 150-200 neurons sampled in replicate cultures as previously described (Williams et al., Neuron 13:583-594, 1994). […] Dose-response curves were evaluated and the EC50 values determined.
Effects of cyclic HAV peptides on N-cadherin function. The ability of N-Ac-CHAVC-NH2 (SEQ ID NO:10; compound 1) to inhibit neurite outgrowth was initially tested. This cyclic peptide has the cadherin CAR sequence (HAV) and no flanking amino acid residues. Neurons were cultured on confluent monolayers of control (untransfected) and N-cadherin expressing 3T3 cells for 16-18 hours. The cells were then fixed and the length of the longest neurite on 150-200 neurons was determined by standard assay, as described above. FIG. 24 gives the mean neurite length in a representative experiment where cerebellar neurons have been cultured over control and N-cadherin expressing cells. In the absence of peptide, the mean length of the longest neurite per cell was approximately double on the N-cadherin expressing cells, as compared to 3T3 cells. This response requires N-cadherin function in both the neuron and transfected fibroblast.

“Also recorded” adds a separate entry of the source. Like-named read-outs stand apart in the source and are kept apart here. Positions of bridges follow the written chain, without caps; N, C: chain ends. Residues, ends and D or L forms follow the SMILES beside them. Where only a bound is given, the exact number is not on record here.

Sequence of L1 (P32004 20-1257): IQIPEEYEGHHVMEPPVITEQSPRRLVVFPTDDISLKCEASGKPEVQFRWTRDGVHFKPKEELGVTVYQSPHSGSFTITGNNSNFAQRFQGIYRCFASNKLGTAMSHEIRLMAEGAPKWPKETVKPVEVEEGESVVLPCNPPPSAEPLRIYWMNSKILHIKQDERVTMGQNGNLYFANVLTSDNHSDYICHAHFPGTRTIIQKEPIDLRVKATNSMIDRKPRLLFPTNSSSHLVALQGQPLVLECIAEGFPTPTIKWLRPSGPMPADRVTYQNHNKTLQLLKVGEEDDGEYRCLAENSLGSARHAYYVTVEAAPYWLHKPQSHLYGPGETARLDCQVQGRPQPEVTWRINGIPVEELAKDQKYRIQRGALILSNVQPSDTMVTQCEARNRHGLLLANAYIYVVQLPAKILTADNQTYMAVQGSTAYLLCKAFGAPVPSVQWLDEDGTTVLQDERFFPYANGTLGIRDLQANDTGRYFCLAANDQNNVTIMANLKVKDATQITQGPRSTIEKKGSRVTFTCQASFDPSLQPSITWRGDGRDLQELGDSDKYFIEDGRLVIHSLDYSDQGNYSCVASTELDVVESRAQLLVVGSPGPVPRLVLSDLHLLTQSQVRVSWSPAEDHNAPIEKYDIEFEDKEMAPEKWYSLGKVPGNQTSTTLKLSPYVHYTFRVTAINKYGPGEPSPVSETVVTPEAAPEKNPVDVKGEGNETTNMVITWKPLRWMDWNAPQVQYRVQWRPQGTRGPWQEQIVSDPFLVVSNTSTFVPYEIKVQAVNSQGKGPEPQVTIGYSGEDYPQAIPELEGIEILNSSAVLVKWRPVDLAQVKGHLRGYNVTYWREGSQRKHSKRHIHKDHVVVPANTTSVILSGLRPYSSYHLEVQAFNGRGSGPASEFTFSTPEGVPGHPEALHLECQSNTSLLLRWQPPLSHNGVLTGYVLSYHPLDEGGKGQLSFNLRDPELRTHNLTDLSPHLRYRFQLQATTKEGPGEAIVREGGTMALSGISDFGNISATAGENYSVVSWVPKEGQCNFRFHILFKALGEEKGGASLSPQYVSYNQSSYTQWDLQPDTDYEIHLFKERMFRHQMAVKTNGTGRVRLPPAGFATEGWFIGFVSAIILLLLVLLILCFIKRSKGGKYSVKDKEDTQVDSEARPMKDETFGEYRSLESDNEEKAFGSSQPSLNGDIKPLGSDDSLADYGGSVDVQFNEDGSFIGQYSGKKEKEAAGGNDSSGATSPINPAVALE

Consider `CC(=O)N[C@H]1CCCCNC(=O)C[C@@H](C(N)=O)NC(=O)[C@H](C(C)C)NC(=O)[C@H](C)NC(=O)[C@H](Cc2c[nH]cn2)NC1=O` (Ac-KHAVD-NH2; lactam 1-5 (inferred)), for which the concentration for half-maximal inhibition (IC50) in the data set “in vitro [1]”, in “in vitro [2]”, in “in vitro [3]”, in the data set with HMVEC, in the data set on WI-38 and in the data set on PC-3 [4] was over 100 µM each time. Further, the half-inhibitory concentration (IC50) in the data set with IAFp2, in the data set “in vitro [5]”, with PC-3 [6] and in the data set on MDA-MB231 was over 100 µM in each case. In addition, the “activity on SKOV3 cell adhesion” value in the data set on SKOV3 cells was “inactive”.

With `CC(=O)N[C@H]1CSSC[C@@H](C(N)=O)NC(=O)[C@H](CC(=O)O)NC(=O)[C@H](C(C)C)NC(=O)[C@H](C)NC(=O)[C@H](Cc2c[nH]cn2)NC1=O` [N-Ac-CHAVDC-NH2] (Ac-CHAVDC-NH2; disulfide 1-6), the “effect on L1 response (neurite outgrowth over L1 expressing 3T3 cells)” value at L1 is recorded as “did not interfere with the ability of neurons to extend neurites over 3T3 cells expressing L1; also recorded: not inhibited”. On chick N-cadherin (NIH3T3, 33 μg/mL), this compound had an inhibition at 33 µg/mL of 28.5%. The same compound had an inhibition at 125 µg/mL on chick N-cadherin (NIH3T3) of 77.1 ± 8.4%. The “inhibitory activity on N-cadherin dependent neurite outgrowth, in words” value at chick N-cadherin is on record as “dramatically increased the inhibitory activity; also recorded: potent inhibitors of neurite outgrowth”.

With `CC[C@H](C)[C@@H]1NC(=O)[C@H](CC(=O)O)NC(=O)[C@H](C(C)C)NC(=O)[C@H](C)NC(=O)[C@H](Cc2c[nH]cn2)NC(=O)[C@@H](NC(C)=O)CSSC[C@@H](C(N)=O)NC1=O` [N-Ac-CHAVDIC-NH2] (Ac-CHAVDIC-NH2; disulfide 1-7), the “effect on L1 response (neurite outgrowth over L1 expressing 3T3 cells)” value at L1 is on record as “did not interfere with the ability of neurons to extend neurites over 3T3 cells expressing L1; also recorded: not inhibited”. At chick N-cadherin (NIH3T3), this compound showed an inhibition at 125 µg/mL of 88.3 ± 7.5%. In addition, the “inhibitory activity on N-cadherin dependent neurite outgrowth, in words” value against chick N-cadherin is on record as “further increased activity; also recorded: potent inhibitors”. Besides, on chick N-cadherin (from dose-response curve), the EC50 was 60 µM.

The values above are taken from patent US20030224978A1, “Compounds and methods for modulating apoptosis” (McGill University, priority 1996, published 2003).
